One molecule from US11452758B2, “Antimicrobial peptide derived from LL37 peptide and uses thereof” (INDUSTRY-ACADEMIC COOPERATION FOUNDATION, CHOSUN UNIVERSITY, priority 2018, dated 2022) can be followed below.

Data set [1] relates to Acinetobacter baumannii KCTC 2508. It counts as cell-based. As to conditions: A. baumannii KCTC 2508. The procedure:
To determine the antimicrobial activity of peptides prepared by the method of above Example 1 in the presence of different ions in living body, minimal inhibitory concentration (MIC), i.e., lowest concentration of a peptide not allowing bacterial cell division, was measured.
Specifically, among the bacterial strains that are described in the above Table 2, Acinetobacter baumannii KCTC 2508 cells were cultured to a mid-log phase in MHB (Mueller Hinton Broth) medium, and, after diluting LL37-2 or LL37-4 peptide synthesized in the above Example 1 in a solution containing different kind of ions (sodium chloride, calcium chloride, magnesium chloride, and iron chloride) at different concentration, it was added to the plate in an amount of 50 μl per plate. After that, the cultured cells were diluted to cell concentration of 2×10^5 cells/50 μl, inoculated to a microtiter plate (NUNC, USA), and then cultured again for 18 hours at 37° C. By using a microtiter plate reader (Merck Elisa reader, Germany), absorbance at wavelength of 600 nm was measured and MIC value was determined for each strain. As a control, the MIC values of LL37, LL37-2 and LL37-4 for Acinetobacter baumannii KCTC 2508, which are shown in the above Table 3, were used.

A further data set deals with mouse erythrocytes. Put plainly: Hemolytic activity. It counts as cell-based. Particulars: 1 hour at 37° C. The procedure:
To compare the cytotoxicity among the peptides that are produced by the method of Example 1, erythrocyte hemolytic activity of the synthesized peptide was measured.
Specifically, erythrocytes of a mouse (Balb/c, 6 week old, female) were diluted in PBS (pH 7.0) to have concentration of 8%, and then subjected to a treatment with LL37, LL37-1, LL37-2, LL37-3 or LL37-4, to have concentration of 1.56, 3.13, 6.25, 12.5, 25.0, 50.0 or 100.0 μM/well for each followed by a reaction for 1 hour at 37° C. After that, the amount of hemoglobin contained in a supernatant collected by centrifuge at 1,000×g was determined by measuring the absorbance at a wavelength of 414 nm. As a control group to be used as a reference for cell disruption level, the supernatant collected by a treatment with 1% Triton X-100 (Sigma, USA) and a reaction for 1 hour at 37° C. was used to measure the absorbance. By setting the resulting absorbance value at 100% of the hemolytic activity, hemolysis of each peptide was calculated using the following formula. Erythrocyte disrupting ability (%)=(Absorbance A−Absorbance B)/(Absorbance C−Absorbance B)×100 (in the above formula, Absorbance A indicates the absorbance of a reaction solution treated with each peptide, in which the absorbance is measured at a wavelength of 414 nm; Absorbance B indicates the absorbance of a reaction solution treated with PBS, in which the absorbance is measured at a wavelength of 414 nm; and Absorbance C indicates the absorbance of a reaction solution treated with 1% Triton X-100, in which the absorbance is measured at a wavelength of 414 nm).

Like-named read-outs stand apart in the source and are kept apart here. Where a SMILES comes first, the peptide text is derived from it.

For `CC[C@H](C)[C@H](NC(=O)[C@H](CCCNC(=N)N)NC(=O)[C@H](CCC(N)=O)NC(=O)[C@@H](NC(=O)[C@@H](NC(=O)[C@H](CCCNC(=N)N)NC(=O)[C@H](CCCCN)NC(=O)[C@H](Cc1ccccc1)NC(=O)[C@H](CCCCN)NC(=O)[C@@H](N)CCCCN)[C@@H](C)CC)C(C)C)C(=O)N[C@@H](CCCCN)C(=O)N[C@@H](CC(=O)O)C(=O)N[C@@H](Cc1ccccc1)C(=O)N[C@@H](CC(C)C)C(=O)N[C@@H](CCCNC(=N)N)C(=O)N[C@@H](CC(N)=O)C(N)=O` [LL37-2, KKFKRIVQRIKDFLRN-NH2] (H-KKFKRIVQRIKDFLRN-NH2), the “Minimal inhibitory concentration of antimicrobial peptide” value was found to be 4 µM in data set [1] (Calcium chloride 1.25 mM); 4 µM in data set [1] (Calcium chloride 2.5 mM); 8 µM in data set [1] (Calcium chloride 5 mM); 4 µM in data set [1] (Iron chloride 2 mM); 4 µM in data set [1] (Iron chloride 4 mM); 4 µM in data set [1] (Iron chloride 8 mM). For the same molecule, the “Minimal inhibitory concentration of antimicrobial peptide” value amounted to 4 µM in data set [1] (Magnesium chloride 0.5 mM); 4 µM in data set [1] (Magnesium chloride 1 mM); 4 µM in data set [1] (Magnesium chloride 2 mM); 8 µM in data set [1] (Sodium chloride 50 mM); 16 µM in data set [1] (Sodium chloride 100 mM); 32 µM in data set [1] (Sodium chloride 150 mM). Further, the Erythrocyte disrupting ability in the data set with mouse erythrocytes (peptide 1.56 μM) worked out at 0%; in the data set with mouse erythrocytes (peptide 3.13 μM) it was 0%; in the data set on mouse erythrocytes (peptide 6.25 μM), 1%; with mouse erythrocytes (peptide 12.5 μM) it was 1%; in the data set on mouse erythrocytes (peptide 25 μM), 1%; in the data set on mouse erythrocytes (peptide 50 μM) it was 1%.
